# Tests used:
# [1] = system: advanced or metastatic solid malignancies; experiment: Clinical trial: toxicity guided dose escalation study, 2-hr infusion on days 1 and 8 every 3 weeks; type: in vivo
# Description: (§1) Sequential cohorts of 3-6 patients with advanced or metastatic solid malignancies received a 2-hr infusion of volasertib on days 1 and 8 every 3 weeks in a toxicity guided dose escalation study. There were 4 prespecified doses (50-200 mg).
# (§2) 27 Asian patients with advanced solid malignancies were treated. […] MTD was 150 mg for above described schedule. The median number of initiated courses was 3 over all dose groups (range 1-21). […] Two patients with bladder cancer and melanoma, respectively had partial responses.
# [2] = Clinical trial: pharmacokinetics in patients; type: in vivo, human; details: 2-hr i.v. infusion days 1 and 8 every 3 weeks
# Description: as §1, §2
# [3] = administered at two days during a 21 day treatment cycle
compound,measurement,setting,value
"CC[C@@H]1C(=O)N(C)c2cnc(Nc3ccc(C(=O)N[C@H]4CC[C@H](N5CCN(CC6CC6)CC5)CC4)cc3OC)nc2N1C(C)C [Volasertib, N-[trans-4-[4-(cyclopropylmethyl)-1-piperazinyl]cyclohexyl]-4-[[(7R)-7-ethyl-5,6,7,8-tetrahydro-5-methyl-8-(1-methylethyl)-6-oxo-2-pteridinyl]amino]-3-methoxy-benzamide]",MTD,[1]; 2-hr infusion on days 1 and 8 of 21 day cycle,150 mg
same,"patients with partial responses (bladder cancer and melanoma, respectively)","[1]; 27 patients treated, days 1 and 8 every 3 weeks",Two
same,patients achieved partial response (preliminary anti-tumor activity),[1]; [3],1 patient
same,patients achieved stable disease,[1]; [3],10 patients
same,dose limiting toxicities (DLTs),"[1]; human, in vivo","reversible thrombocytopenia, neutropenia and febrile neutropenia"
same,PK behavior,[2],multi-compartmental
same,clearance,"[2]; human, in vivo, iv",807 mL/min
same,half-life,"[2]; human, in vivo, iv, read-out: mean terminal elimination half-life (converted)",107 h
same,Vd,"[2]; human, in vivo, iv, read-out: volume of distribution",4500 L
